Reference: BigSolDB 2.1

CC(=O)c1ccc(O)cc1O
solubility (mole fraction)
Conditions	in benzene	in ethanol	in ethyl acetate	in isobutanol	in isopropanol	in methanol	in methyl acetate	in n-butanol	in n-propanol	in n-propyl acetate
293.15 K	0.00045	0.118	0.118	0.0782	0.13	0.103	0.114	0.104	0.106	0.11
298.15 K	0.00055	0.131	0.129	0.091	0.144	0.117	0.126	0.118	0.118	0.12
303.15 K	0.00067	0.146	0.139	0.107	0.162	0.132	0.141	0.133	0.135	0.129
308.15 K	0.00082	0.162	0.152	0.122	0.178	0.148	0.155	0.153	0.151	0.143
313.15 K	0.00102	0.177	0.166	0.139	0.194	0.163	0.168	0.172	0.167	0.155
318.15 K	0.00125	0.195	0.18	0.156	0.211	0.183	0.182	0.191	0.18	0.171
323.15 K	0.0015	0.216	0.199	0.18	0.231	0.203	0.201	0.214	0.195	0.189
328.15 K	0.00178	0.235	0.216	0.199	0.25	0.228	0.212	0.233	0.216	0.205
333.15 K	0.00207	0.257	0.236	0.221	0.271	0.253	–	0.253	0.233	0.222
